Laboratory results published in patent US11103488B2, “Methods of treating autoimmune, respiratory and inflammatory disorders by inhalation of roflumilast N-oxide” (Incozen Therapeutics Pvt. Ltd., priority 2013, dated 2021).

What was measured:
neutrophil infiltration = assay: Acute cigarette smoke induced cell infiltration, neutrophils; type: in vivo, female Balb/c mice; conditions: for Percent inhibition in neutrophil infiltration: intranasal, day 1 to day 4
Experimental: (§1) Animals were acclimatized for seven days prior to the start of the experiment. The animals were randomly distributed to various groups based on their body weight. For oral administration of roflumilast and for intranasal administration of roflumilast N-oxide, roflumilast or roflumilast N-oxide were prepared as a suspension in a suitable vehicle. On day 1, mice were administered roflumilast N-oxide or roflumilast and after 1 hour, the animals were placed in a whole body exposure box. On day 1 and day 2, the mice were exposed to the mainstream smoke of 6 cigarettes, and 8 cigarettes on day 3 and day 4. Exposure to the smoke of each cigarette lasted for 10 minutes (cigarettes were completely burned in the first two minutes and followed by an air flow with animal ventilator, then 20 minutes exposure to fresh room air). After every second cigarette an additional break of 20 minutes with exposure to fresh room air was conducted. Control animals were exposed to room air chamber. From day 1 to day 4, the animals were administered roflumilast N-oxide or roflumilast. On day 5, 24 hours after the last cigarette smoke (CS) exposure, the animals were exsanguinated under anaesthesia, the trachea were cannulated and the lungs were lavaged with 0.5-ml aliquots of heparinised PBS (1 unit/ml) four times through tracheal cannula (total volume 2 ml). Bronchioalveolar (BAL) collected was stored at 2-8° C. until assayed for total cell and differential leukocyte count. BAL fluid was centrifuged (500×g for 10 minutes) and the resulting cell pellet was resuspended in 0.5 ml of heparinised saline. The total number of white blood cells was determined in BAL fluid and adjusted to 1×10^6 cell/ml. Differential cell count was calculated manually by diff-quick staining. Forty microliters of the cell suspension was centrifuged using cytospin 3 to prepare a cell smear. The cell smear was stained with a blood staining solution for differentiation and microscopically observed to identify cell type according to their morphological characteristics. The number of each cell type among 300 white blood cells in the cell smear were determined and expressed as a percentage, and the number of neutrophils and macrophages in each BAL fluid were calculated.
(§2) Roflumilast and roflumilast N-oxide as a suspension in polysorbate 80 (1% v/v) and methyl cellulose (MC) (0.5% w/v) were used for oral and intranasal administration respectively.

[1] = Particle size distribution after micronization (Alpine Spiral Jet Mill); type: physicochemical; conditions: micronized
Source text: Laser diffraction measurement of particle size can use a dry method (wherein a suspension of the compound/salt in an airflow crosses the laser beam) or a wet method (wherein a suspension of the compound/salt in a liquid dispersing medium, such as isooctane (e.g. if compound is soluble in isooctane) or 0.1% Tween 80 in water, crosses the laser beam). With laser diffraction, particle size may be measured, for example, with a Malvern Mastersizer or Sympatec apparatus. For example, particle size measurement and/or analysis by laser diffraction can use any or all of (preferably all of) the following: a Malvern Mastersizer longbed version, a dispersing medium of 0.1% Tween 80 in water, a stir rate of ca. 1500 rpm, ca. 3 mins sonification prior to final dispersion and analysis, a 300 RF (Reverse Fourier) lens, and/or the Fraunhofer calculation with Malvern software. Unless specified otherwise, all d50 and d90 measurements are measured by laser diffraction using a wet method.
Provided below is an exemplary method used for micronization of roflumilast N-Oxide using an Alpine Spiral Jet Mill (HOSOKAWA). The process involved the following steps • 15 gm of Roflumilast N-oxide was weighed. • Main knob for compressed air supply was opened. • Adjusted venture pressure at 6.0 bar and ring pressure at 0.5 bar. • Roflumilast N-oxide was added at a feed rate of ˜200 mg/min manually through the hopper. • After completion of micronization, main air supply knob was turned off and micronized roflumilast N-oxide was collected

[2] = 14-day repeat dose safety study; type: in vivo, Wistar Rats; conditions: Intratracheal, 1000 ug/kg/day, 14 days
Experimental: In order to determine the safety of roflumilast N-oxide by inhalation compared to roflumilast by oral administration, a 7- and 14-day repeat dose safety study was conducted according to the protocol given in Table 5 below.

[3] = Lung microsome metabolic stability, human; type: in vitro ADME; conditions: 1 μM test item, 60 minutes, NADPH
Experimental: Metabolic stability studies were conducted using rat, dog and human lung microsomes. The protocol for the studies with rat, dog, and human lung microsomes (from Xenotech, USA) is provided below.
0.4 mg protein was preincubated with 2 mM NADPH (cofactor) in phosphate buffer (pH˜7.4) for 15 minutes at […] and then added with 1 μM test item and incubated further for 60 minutes in triplicate. The reaction mixture was terminated with methanol containing an internal standard and centrifuged further to analyze the test item remaining in the supernatant by LC-MS/MS. The percent parent compound remaining was calculated in comparison with similar samples terminated at 0 minutes.

macrophage infiltration = assay: Acute cigarette smoke induced cell infiltration, macrophages; type: in vivo, female Balb/c mice; conditions: for Percent inhibition in macrophage infiltration: intranasal, day 1 to day 4
Experimental: as §1, §2

## O=C(Nc1c(Cl)c[n+]([O-])cc1Cl)c1ccc(OC(F)F)c(OCC2CC2)c1 [Roflumilast N-oxide]
Neutrophil infiltration; Mus musculus, Neutrophil, inhaled or nasal, intranasal administration, read-out: 50% inhibition (ED50) dose, neutrophil infiltration
  ED50: 0.038 mg/kg
Neutrophil infiltration; 0.003 mg/kg
  Percent inhibition in neutrophil infiltration: 26.60%
Neutrophil infiltration; 0.03 mg/kg
  Percent inhibition in neutrophil infiltration: 59.28%
Neutrophil infiltration; 0.3 mg/kg
  Percent inhibition in neutrophil infiltration: 66.49%
Neutrophil infiltration; 3 mg/kg
  Percent inhibition in neutrophil infiltration: 72.08%
[1]
  Particle Size Distribution (PSD), D10: 0.777 μm
  Particle Size Distribution (PSD), D50: 1.564 μm
  Particle Size Distribution (PSD), D90: 3.021 μm
[2]
  MORTALITY: No Mortality
[3]; human non smoker lung microsomes
  Percent Parent Compound Remaining, Human Non Smoker: 91.5%
[3]; human smoker lung microsomes
  Percent Parent Compound Remaining, Human Smoker: 99.3%
Macrophage infiltration; Mus musculus, Macrophage, inhaled or nasal, intranasal administration, read-out: 50% inhibition (ED50) dose, macrophage infiltration
  ED50: 0.049 mg/kg
Macrophage infiltration; 0.003 mg/kg
  Percent inhibition in macrophage infiltration: 50.68%
Macrophage infiltration; 0.03 mg/kg
  Percent inhibition in macrophage infiltration: 55.10%
Macrophage infiltration; 0.3 mg/kg
  Percent inhibition in macrophage infiltration: 62.79%
Macrophage infiltration; 3 mg/kg
  Percent inhibition in macrophage infiltration: 63.35%
